According to US8933233B2, “1,3,4-oxadiazole and 1,3,4-thiadiazole β-lactamase inhibitors” (priority 2012, dated 2015):
Where a name gives a salt, the structure may show the parent alone.

Tests used:
[1] = test system: bacterial strains that express KPC β-lactamases; assay: Synergy MIC / standard BLI potentiation MIC assay, strains expressing KPC β-lactamases; assay type: cell-based, isogenic E. coli and clinical isolates; settings: more active for at least one KPC strain and/or better spectrum; comparator Avibactam
Description: (§1) Unless otherwise indicated, the activity of the BLI compounds can be described by the MIC value obtained from a Synergy MIC assay or a BLI potentiation assay (e.g as described herein), both of which are run in the presence of a β-lactam.
(§2) The experimental protocol was performed according to Clinical and Laboratory Standards Institute (CLSI) guidelines with modifications as described below (CLSI guidelines can be derived from the CLSI document M07-A9 published in January 2012: “Methods for Dilution Antimicrobial Susceptibility Tests for Bacteria That Grow Aerobically; Approved Standard-Ninth Edition”).
(§3) To prepare for MIC testing, frozen glycerol stocks of clinical isolates (Klebsiella pneumoniae, Eschericia coli, Enterobacter spp, Citrobacter spp, or Pseudomonas aeruginosa) were used to streak for isolated colonies on rich, non-selective, tryptic soy agar containing 5% sheep's blood (TSAB). Frozen glycerol stocks of laboratory engineered, isogenic E. coli strains, which contain cloned β-lactamase expressing plasmids were used to streak for isolated colonies on rich, selective LB agar supplemented with 25 μg/mL tetracycline to maintain the plasmid. All strains were incubated at 37° C. for 18-24 hrs.
(§4) On the day of testing, primary cultures were started by scraping off 5-10 colonies from the TSAB plates containing clinical strains or the tetracycline supplemented LB plates containing engineered strains. The clinical strain material was suspended in ˜5 mL of cation adjusted Mueller Hinton Broth (CAMHB) in 14 mL culture tubes. The engineered strain material was suspended in CAMHB (supplemented with 25 μg/mL tetracycline) in 14 mL culture tubes. All strains were incubated at 37° C. with aeration (200 rpm) for ˜2 hrs until the optical density at 600 nm (OD600) was ≧0.1.
(§5) The two compound components of the assay were each diluted in CAMHB and added to the 96-well broth microdilution assay plates. 50 μL of the β-lactam was added to each well of the assay plate in 2-fold dilutions with final concentrations ranging from 128 to 0.13 μg/mL. 25 μL of the BLI compound was added to all wells in the broth microdilution plates at a final concentration of 4 μg/mL. Inoculum cultures were prepared by standardizing the primary cultures to OD600=0.1 and then adding 20 μL of the adjusted primary culture per 1 mL CAMHB for clinical strains or CAMHB (supplemented with tetracycline at 100 μg/mL) for engineered strains, so that the final inoculum density was ˜10^5 colony forming units per milliliter. Diluted inoculum cultures were used to inoculate 25 μL per well in 96-well broth microdilution assay plates. The final volume of each well was 100 μL and contained a β-lactam at different concentrations, a BLIcompound at 4 μg/mL concentration, the bacterial culture at an OD600 of approximately 0.001 and when necessary tetracycline at 25 μg/mL.
(§6) Plates were incubated for 18-20 hours at 37° C. with aeration (200 rpm). Following incubation, growth was confirmed visually placing plates over a viewing apparatus (stand with a mirror underneath) and then OD600 was measured using a SpectraMax 340PC384 plate reader (Molecular Devices, Sunnyvale, Calif.). Growth was defined as turbidity that could be detected with the naked eye or achieving minimum OD600 of 0.1. MIC values were defined as the lowest concentration producing no visible turbidity.
(§7) The synergy MIC (sMIC) assay determines the concentration of the BLI required to potentiate the activity of a fixed concentration of a β-lactam antibiotic against β-lactamase producing bacterial strains. The experimental protocol was performed according to Clinical and Laboratory Standards Institute (CLSI) guidelines with modifications as described below (CLSI guidelines can be derived from the CLSI document M07-A9 published in January 2012: “Methods for Dilution Antimicrobial Susceptibility Tests for Bacteria That Grow Aerobically; Approved Standard-Ninth Edition”). […]

[2] = test system: bacterial strains that express the class D cephalosporinase OXA-15; assay: Synergy MIC / standard BLI potentiation MIC assay, strains expressing OXA-15; assay type: cell-based, E. coli; settings: in presence of a β-lactam; comparator Avibactam (CCC)
Description: as §1, §2, §3, §4, §5, §6, §7

SMILES | activity and/or spectrum of activity against bacterial strains that express KPC β-lactamases, compared with Avibactam [1] | activity against bacterial strains that express OXA-15, compared with Avibactam [2]
N=C(N)N1CC(NCc2nnc([C@@H]3CC[C@@H]4CN3C(=O)N4OS(=O)(=O)O)o2)C1 [Compound 746, (2S,5R)-2-(5-(((1-carbamimidoylazetidin-3-yl)amino)methyl)-1,3,4-oxadiazol-2-yl)-7-oxo-1,6-diazabicyclo[3.2.1]octan-6-yl hydrogen sulfate] | more active than Avibactam | more active than Avibactam
O=C1N2C[C@@H](CC[C@H]2c2nnc(CCC3CNC3)o2)N1OS(=O)(=O)O [Compound 742, (2S,5R)-2-(5-(2-(azetidin-3-yl)ethyl)-1,3,4-oxadiazol-2-yl)-7-oxo-1,6-diazabicyclo[3.2.1]octan-6-yl hydrogen sulfate] | more active than Avibactam | more active than Avibactam
O=C1N2C[C@@H](CC[C@H]2c2nnc(CNC3CNC3)o2)N1OS(=O)(=O)O [Compound 726, (2S,5R)-2-(5-((azetidin-3-ylamino)methyl)-1,3,4-oxadiazol-2-yl)-7-oxo-1,6-diazabicyclo[3.2.1]octan-6-yl hydrogen sulfate] | more active than Avibactam | more active than Avibactam
O=C1N2C[C@@H](CC[C@H]2c2nnc(C3CCNCC3)o2)N1OS(=O)(=O)O [Compound 711, (2S,5R)-7-oxo-2-(5-(piperidin-4-yl)-1,3,4-oxadiazol-2-yl)-1,6-diazabicyclo[3.2.1]octan-6-yl hydrogen sulfate] | more active than Avibactam | more active than Avibactam
C[n+]1ccc(-c2nnc([C@@H]3CC[C@@H]4CN3C(=O)N4OS(=O)(=O)[O-])o2)cc1 [Compound 782, (2S,5R)-2-(5-(1-methylpyridin-1-ium-4-yl)-1,3,4-oxadiazol-2-yl)-7-oxo-1,6-diazabicyclo[3.2.1]octan-6-yl sulfate] | more active than Avibactam | more active than Avibactam
O=C1N2C[C@@H](CC[C@H]2c2nnc([C@H]3CCNC3)o2)N1OS(=O)(=O)O [Compound 758, (2S,5R)-7-oxo-2-(5-((S)-pyrrolidin-3-yl)-1,3,4-oxadiazol-2-yl)-1,6-diazabicyclo[3.2.1]octan-6-yl hydrogen sulfate] | more active than Avibactam | more active than Avibactam
NCCCc1nnc([C@@H]2CC[C@@H]3CN2C(=O)N3OS(=O)(=O)O)o1 [Compound 720, (2S,5R)-2-(5-(3-aminopropyl)-1,3,4-oxadiazol-2-yl)-7-oxo-1,6-diazabicyclo[3.2.1]octan-6-yl hydrogen sulfate] | more active than Avibactam | more active than Avibactam
O=C1N2C[C@@H](CC[C@H]2c2nnc([C@H]3[C@@H]4CNC[C@@H]43)o2)N1OS(=O)(=O)O [Compound 740, (2S,5R)-2-(5-(3-azabicyclo[3.1.0]hexan-6-yl)-1,3,4-oxadiazol-2-yl)-7-oxo-1,6-diazabicyclo[3.2.1]octan-6-yl hydrogen sulfate] | more active than Avibactam | more active than Avibactam
O=C1N2C[C@@H](CC[C@H]2c2nnc(CCCNC3CCNCC3)o2)N1OS(=O)(=O)O [Compound 771, (2S,5R)-7-oxo-2-(5-(3-(piperidin-4-ylamino)propyl)-1,3,4-oxadiazol-2-yl)-1,6-diazabicyclo[3.2.1]octan-6-yl hydrogen sulfate] | more active than Avibactam | more active than Avibactam
N[C@H]1C[C@H](c2nnc([C@@H]3CC[C@@H]4CN3C(=O)N4OS(=O)(=O)O)o2)C1 [Compound 727, (2S,5R)-2-(5-((1r,3S)-3-aminocyclobutyl)-1,3,4-oxadiazol-2-yl)-7-oxo-1,6-diazabicyclo[3.2.1]octan-6-yl hydrogen sulfate] | more active than Avibactam | more active than Avibactam
N=C(N)NCc1nnc([C@@H]2CC[C@@H]3CN2C(=O)N3OS(=O)(=O)O)s1 [Compound 721, (2S,5R)-2-(5-(guanidinomethyl)-1,3,4-thiadiazol-2-yl)-7-oxo-1,6-diazabicyclo[3.2.1]octan-6-yl hydrogen sulfate] | more active than Avibactam | more active than Avibactam
N[C@H]1C[C@@H](c2nnc([C@@H]3CC[C@@H]4CN3C(=O)N4OS(=O)(=O)O)s2)C1 [Compound 795, (2S,5R)-2-(5-((1s,3R)-3-aminocyclobutyl)-1,3,4-thiadiazol-2-yl)-7-oxo-1,6-diazabicyclo[3.2.1]octan-6-yl hydrogen sulfate] | more active than Avibactam | more active than Avibactam
N[C@H]1C[C@@H](CCc2nnc([C@@H]3CC[C@@H]4CN3C(=O)N4OS(=O)(=O)O)o2)C1 [Compound 754, (2S,5R)-2-(5-(2-((1s,3S)-3-aminocyclobutyl)ethyl)-1,3,4-oxadiazol-2-yl)-7-oxo-1,6-diazabicyclo[3.2.1]octan-6-yl hydrogen sulfate] | more active than Avibactam | more active than Avibactam
O=C1N2C[C@@H](CC[C@H]2c2nnc(CCCCNC3CCNCC3)o2)N1OS(=O)(=O)O [Compound 772, (2S,5R)-7-oxo-2-(5-(4-(piperidin-4-ylamino)butyl)-1,3,4-oxadiazol-2-yl)-1,6-diazabicyclo[3.2.1]octan-6-yl hydrogen sulfate] | more active than Avibactam | more active than Avibactam
O=C1N2C[C@@H](CC[C@H]2c2nnc(CCNCCO)o2)N1OS(=O)(=O)O [Compound 736, (2S,5R)-2-(5-(2-((2-hydroxyethyl)amino)ethyl)-1,3,4-oxadiazol-2-yl)-7-oxo-1,6-diazabicyclo[3.2.1]octan-6-yl hydrogen sulfate] | more active than Avibactam | more active than Avibactam
NC1CCN(CCc2nnc([C@@H]3CC[C@@H]4CN3C(=O)N4OS(=O)(=O)O)o2)CC1 [Compound 775, (2S,5R)-2-(5-(2-(4-aminopiperidin-1-yl)ethyl)-1,3,4-oxadiazol-2-yl)-7-oxo-1,6-diazabicyclo[3.2.1]octan-6-yl hydrogen sulfate] | more active than Avibactam | 
